# According to patent publication US9481670B2, “Triazine compounds” (Sphaera Pharma PTE. Ltd., priority 2011, dated 2016):
# Target: T1, PI3K alpha (Homo sapiens, UniProt P42336)
# T1 construct: purchased Millipore Upstate
# Test: P110 Alpha TR-FRET Assay (PI3K alpha kinase assay, HTRF Transcreener ADP Assay)
# Format: biochemical
# Details: PI3K (WT)
# Experimental: PI3K alpha kinase assay may be done using HTRF Transcreener ADP Assay (Cisbio).
# Composition of the reaction buffer was as follows 50 mM HEPES, pH 7.5, 5 mM MgCl2, 1 mM DTT, 30 μM Na3VO4. PI3 Kinase was procured from Millipore Upstate. […] ATP was used at final concentration of 10 μM. Corning 384 well white plates were used for the assay.
# 2 μl of diluted enzyme (50 ng), 3 μl of diluted compound and 5 μl of buffer were added, mixed then incubated for 20 minutes with shaking at 400 rpm. 3 μl of substrate (10 μM of ATP and 5 μM PIP2) were added to initiate the reaction. The samples were incubated for 20 min. At the end of the reaction time 10 μl of the Detection mix (5 μl of ADP-D2 and 5 μl of Anti-ADP-Cryptate) was added and the contents were incubated for 1 h. The reaction plate was directly read in an Envision Multilabel Plate Reader.
# T1 sequence (P42336 whole entry): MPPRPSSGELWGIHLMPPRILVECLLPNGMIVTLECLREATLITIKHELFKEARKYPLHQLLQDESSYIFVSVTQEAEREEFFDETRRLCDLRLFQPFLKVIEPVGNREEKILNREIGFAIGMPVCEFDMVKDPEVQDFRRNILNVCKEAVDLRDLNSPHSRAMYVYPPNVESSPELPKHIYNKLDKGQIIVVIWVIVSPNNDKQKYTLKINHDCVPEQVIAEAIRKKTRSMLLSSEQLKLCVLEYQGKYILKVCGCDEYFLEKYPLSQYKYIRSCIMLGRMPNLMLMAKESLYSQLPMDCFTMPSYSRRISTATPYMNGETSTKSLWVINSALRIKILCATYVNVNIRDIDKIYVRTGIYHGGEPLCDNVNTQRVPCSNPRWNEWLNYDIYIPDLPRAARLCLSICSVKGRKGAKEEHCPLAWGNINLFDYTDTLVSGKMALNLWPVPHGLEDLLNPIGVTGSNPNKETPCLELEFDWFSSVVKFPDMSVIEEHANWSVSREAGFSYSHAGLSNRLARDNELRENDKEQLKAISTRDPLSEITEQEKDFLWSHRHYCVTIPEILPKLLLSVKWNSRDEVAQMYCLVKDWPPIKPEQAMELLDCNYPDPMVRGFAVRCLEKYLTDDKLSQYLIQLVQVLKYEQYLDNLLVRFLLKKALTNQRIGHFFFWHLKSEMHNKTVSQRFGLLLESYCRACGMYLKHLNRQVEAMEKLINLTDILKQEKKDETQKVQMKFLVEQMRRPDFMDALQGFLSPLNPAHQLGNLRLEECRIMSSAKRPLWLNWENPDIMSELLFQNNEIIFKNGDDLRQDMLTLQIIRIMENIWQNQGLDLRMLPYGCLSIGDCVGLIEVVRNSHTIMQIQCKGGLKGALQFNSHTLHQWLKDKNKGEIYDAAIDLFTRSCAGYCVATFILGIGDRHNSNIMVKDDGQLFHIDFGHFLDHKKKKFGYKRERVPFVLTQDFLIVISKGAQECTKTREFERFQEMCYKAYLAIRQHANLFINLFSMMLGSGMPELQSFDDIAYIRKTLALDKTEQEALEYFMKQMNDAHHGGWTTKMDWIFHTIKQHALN
# T1 sequence (P27986 whole entry partner): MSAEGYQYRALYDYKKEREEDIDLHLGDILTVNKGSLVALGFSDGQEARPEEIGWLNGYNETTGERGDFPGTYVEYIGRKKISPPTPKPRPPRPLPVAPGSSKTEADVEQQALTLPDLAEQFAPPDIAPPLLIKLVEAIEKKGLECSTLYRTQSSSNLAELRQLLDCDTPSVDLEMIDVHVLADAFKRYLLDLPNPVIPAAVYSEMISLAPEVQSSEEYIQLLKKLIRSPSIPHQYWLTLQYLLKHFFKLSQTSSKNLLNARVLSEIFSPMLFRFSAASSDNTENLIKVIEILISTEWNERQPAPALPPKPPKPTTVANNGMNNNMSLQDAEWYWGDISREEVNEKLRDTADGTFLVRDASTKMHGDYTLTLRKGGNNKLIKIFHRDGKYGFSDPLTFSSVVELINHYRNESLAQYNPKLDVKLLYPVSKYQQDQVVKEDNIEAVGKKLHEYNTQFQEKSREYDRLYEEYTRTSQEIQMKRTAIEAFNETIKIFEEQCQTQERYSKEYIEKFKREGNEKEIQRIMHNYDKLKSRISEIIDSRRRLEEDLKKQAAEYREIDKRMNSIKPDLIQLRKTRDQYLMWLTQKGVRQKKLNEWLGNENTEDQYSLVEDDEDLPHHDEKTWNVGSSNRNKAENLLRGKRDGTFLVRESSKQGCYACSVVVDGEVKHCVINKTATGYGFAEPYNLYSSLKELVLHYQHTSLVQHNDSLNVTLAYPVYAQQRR
row,Structure (SMILES),IC50 [µM]
1,"NS(=O)(=O)N[C@H]1CC[C@H](Oc2nc(-c3cccc4[nH]ncc34)nc(N3CCOCC3)n2)CC1 [Compound 1094, N-[(1r,4r)-4-9-{[4-1-(1H-indazol-4-yl)-6-5-(morpholin-4-yl)-1,3,5-triazin-2-yl]oxy}cyclohexyl]aminosulfonamide]",< 5
2,"c1cc(-c2nc(-c3cccc4[nH]ncc34)nc(N3CCOCC3)n2)c2cn[nH]c2c1 [Compound 1224, 4-12-[4-3-(1H-indazol-4-yl)-6-5-(morpholin-4-yl)-1,3,5-triazin-2-yl]-1H-indazole]",< 5
3,"CN(C)C(=O)c1ccc(Oc2nc(-c3cccc4[nH]ncc34)nc(N3CCOCC3)n2)cc1 [Compound 1114, 4-14-{[4-1-(1H-indazol-4-yl)-6-5-(morpholin-4-yl)-1,3,5-triazin-2-yl]oxy}-N,N-dimethylbenzamide]",< 5
4,"CN(C)C(=O)c1ccc(Oc2nc(-c3cnc(N)cn3)nc(N3CCOCC3)n2)cc1 [Compound 1009, 4-14-{[4-1-(5-17-aminopyrazin-2-yl)-6-5-(morpholin-4-yl)-1,3,5-triazin-2-yl]oxy}-N,N-dimethylbenzamide]",< 5
5,"CN(C)C(=O)c1ccc(Oc2nc(-c3cccc4[nH]ncc34)nc(-n3ccnc3)n2)cc1 [Compound 1016, 4-9-{[4-5-(1H-imidazol-1-yl)-6-1-(1H-indazol-4-yl)-1,3,5-triazin-2-yl]oxy}-N,N-dimethylbenzamide]",< 5
6,"CN(C)C(=O)c1ccc(Oc2nc(-c3cccc4[nH]ncc34)nc(N3CCNC(=O)CC3)n2)cc1 [Compound 1038, 4-7-{[4-5-(1H-indazol-4-yl)-6-3-(5-31-oxo-1,4-diazepan-1-yl)-1,3,5-triazin-2-yl]oxy}-N,N-dimethylbenzamide]",> 5
7,"Cc1nc(N2CCOCC2)nc(N2CCOCC2)n1 [Compound 1045, 2-1-methyl-4-5,6-3-bis(morpholin-4-yl)-1,3,5-triazine]",> 5
8,"CN(C)C(=O)c1cccc(Nc2nc(-c3cccc4[nH]ncc34)nc(N3CCNC(=O)C3)n2)c1 [Compound 1111, 3-((4-(1H-indazol-4-yl)-6-(3-oxopiperazin-1-yl)-1,3,5-triazin-2-yl)amino)-N,N-dimethylbenzamide]",> 5
9,"N#Cc1cccc(Oc2nc(-c3cccc4[nH]ncc34)nc(N3CCOCC3)n2)c1 [Compound 1131, 3-22-{[4-1-(1H-indazol-4-yl)-6-5-(morpholin-4-yl)-1,3,5-triazin-2-yl]oxy}benzonitrile]",> 5
10,"CN(C)C(=O)c1ccc(Oc2nc(-c3cccc4c(=O)[nH]ccc34)nc(N3CCOCC3)n2)cc1 [Compound 1033, N,N-dimethyl-4-14-{[4-5-(morpholin-4-yl)-6-1-(1-30-oxo-1,2-dihydroisoquinolin-5-yl)-1,3,5-triazin-2-yl]oxy}benzamide]",> 5
11,"COC1CN(c2nc(Oc3ccc(C(=O)N(C)C)cc3)nc(-c3cccc4[nH]ncc34)n2)C1 [Compound 1075, 4-9-{[4-1-(1H-indazol-4-yl)-6-5-(3-29-methoxyazetidin-1-yl)-1,3,5-triazin-2-yl]oxy}-N,N-dimethylbenzamide]",> 5
12,"NS(=O)(=O)Nc1ccc(Oc2nc(-c3cccc4[nH]ncc34)nc(N3CCOCC3)n2)cc1 [Compound 1092, N-(4-14-{[4-1-(1H-indazol-4-yl)-6-5-(morpholin-4-yl)-1,3,5-triazin-2-yl]oxy}phenyl)aminosulfonamide]",< 5
13,"CN(C)C(=O)c1ccc(Oc2nc(-c3cccc4[nH]ncc34)nc(N3CC4(COC4)C3)n2)cc1 [Compound 1055, 4-8-{[4-5-(1H-indazol-4-yl)-6-3-{2-oxa-6-azaspiro[3.3]heptan-6-yl}-1,3,5-triazin-2-yl]oxy}-N,N-dimethylbenzamide]",> 5
14,"CN(C)C(=O)c1ccc(Oc2nc(-c3ccc(N)nc3)nc(N3CCCOCC3)n2)cc1 [Compound 1014, 4-21-{[4-1-(6-9-aminopyridin-3-yl)-6-5-(1,4-oxazepan-4-yl)-1,3,5-triazin-2-yl]oxy}-N,N-dimethylbenzamide]",< 5
15,"CCN1CCC(Oc2nc(-c3cccc4[nH]ncc34)nc(N3CCOCC3)n2)CC1 [Compound 1149, 4-7-{4-3-[(1-25-ethylpiperidin-4-yl)oxy]-6-5-(morpholin-4-yl)-1,3,5-triazin-2-yl}-1H-indazole]",< 5

# Other lines, results leading:
row,IC50 [µM],Structure (SMILES)
1,< 5,"CN(C)C(=O)N1CC[C@H](Oc2nc(-c3ccc(N)nc3)nc(N3CCOCC3)n2)C1 [Compound 1026, 3-19-{[4-3-(6-16-aminopyridin-3-yl)-6-5-(morpholin-4-yl)-1,3,5-triazin-2-yl]oxy}-N,N-dimethylpyrrolidine-1-carboxamide]"
2,< 5,"CNC(=O)[C@H]1CC[C@@H](Nc2nc(-c3cccc4[nH]ncc34)nc(N3CCOCC3)n2)CC1 [Compound 1215, 4-((4-(1H-indazol-4-yl)-6-morpholino-1,3,5-triazin-2-yl)amino)-N-methylcyclohexanecarboxamide]"
3,< 5,"CN(C)C(=O)Nc1ccc(Oc2nc(-c3cccc4[nH]ncc34)nc(N3CCOCC3)n2)cc1 [Compound 1106, 1-(4-14-{[4-1-(1H-indazol-4-yl)-6-5-(morpholin-4-yl)-1,3,5-triazin-2-yl]oxy}phenyl)-3,3-dimethylurea]"
4,< 5,"Nc1ccc(-c2nc(N3CCNCC3)nc(N3CCOCC3)n2)cn1 [Compound 1134, 5-18-[4-5-(morpholin-4-yl)-6-3-(piperazin-1-yl)-1,3,5-triazin-2-yl]pyridin-2-amine]"
5,< 5,"Nc1nc(-c2cccc(O)c2)nc(N2CCOCC2)n1 [Compound 1139, 3-8-[4-3-amino-6-5-(morpholin-4-yl)-1,3,5-triazin-2-yl]phenol]"
6,> 5,"CN(C)C(=O)c1ccc(Oc2nc(-c3cccc4[nH]ncc34)nc(N3CCOCC3)n2)nc1 [Compound 1072, 6-14-{[4-1-(1H-indazol-4-yl)-6-5-(morpholin-4-yl)-1,3,5-triazin-2-yl]oxy}-N,N-dimethylpyridine-3-carboxamide]"
7,< 5,"CN(C)C(=O)c1ccc(Nc2nc(-c3cccc4[nH]ncc34)nc(N3CCOCC3)n2)cc1 [Compound 1204, 4-((4-(1H-indazol-4-yl)-6-morpholino-1,3,5-triazin-2-yl)amino)-N,N-dimethylbenzamide]"
8,< 5,"CN(C)C(=O)c1cc(Oc2nc(-c3cccc4[nH]ncc34)nc(N3CCOCC3)n2)cs1 [Compound 1067, 4-14-{[4-1-(1H-indazol-4-yl)-6-5-(morpholin-4-yl)-1,3,5-triazin-2-yl]oxy}-N,N-dimethylthiophene-2-carboxamide]"
9,< 5,"CN(C)C(=O)N1CCN(Cc2nc(-c3cccc4[nH]ncc34)nc(N3CCOCC3)n2)CC1 [Compound 1180, 4-((4-(1H-1-indazol-4-yl)-6-morpholino-1,3,5-triazin-2-yl)methyl)-N,N-dimethylpiperazine-1-carboxamide]"
10,< 5,"CC(C)(Nc1nc(-c2cccc3[nH]ncc23)nc(N2CCOCC2)n1)C(=O)O [Compound 1235, 2-((4-(1H-indazol-4-yl)-6-morpholino-1,3,5-triazin-2-yl)amino)-2-methylpropanoic acid]"
11,< 5,"CN(C)C(=O)[C@H]1C[C@H](Oc2nc(-c3cccc4[nH]ncc34)nc(N3CCOCC3)n2)CN1C [Compound 1099, (2R,4S)-4-14-{[4-1-(1H-indazol-4-yl)-6-5-(morpholin-4-yl)-1,3,5-triazin-2-yl]oxy}-N,N,1-trimethylpyrrolidine-2-carboxamide]"
12,< 5,"CN(C)C(=O)CCNc1nc(-c2cccc3[nH]ncc23)nc(N2CCOCC2)n1 [Compound 1223, 3-((4-(1H-indazol-4-yl)-6-morpholino-1,3,5-triazin-2-yl)amino)-N,N-dimethylpropanamide]"
13,< 5,"CN(C)C(=O)[C@H]1CC[C@H](Nc2nc(-c3cccc4[nH]ncc34)nc(N3CCOCC3)n2)CC1 [Compound 1214, (1r,4r)-4-((4-(1H-indazol-4-yl)-6-morpholino-1,3,5-triazin-2-yl)amino)-N,N-dimethylcyclohexanecarboxamide]"
14,> 5,"O=C(O)CNc1nc(-c2cccc(C(=O)O)c2)nc(N2CCOCC2)n1 [Compound 1161, 3-6-{4-1-[(carboxymethyl)amino]-6-2-(morpholin-4-yl)-1,3,5-triazin-2-yl}benzoic acid]"
15,< 5,"COC1CN(C(=O)c2cccc(Nc3nc(-c4cccc5[nH]ncc45)nc(N4CCOCC4)n3)c2)C1 [Compound 1164, (3-((4-(1H-indazol-4-yl)-6-morpholino-1,3,5-triazin-2-yl)amino)phenyl)(3-methoxyazetidin-1-yl)methanone]"
16,> 5,"c1ccc(Nc2nc(-c3cccc4c3cnn4C3CCCCO3)nc(N3CCOCC3)n2)cc1 (centres unmarked) [Compound 1084, 4-morpholino-N-phenyl-6-(1-(tetrahydro-2H-pyran-2-yl)-1H-indazol-4-yl)-1,3,5-triazin-2-amine]"
17,< 5,"Oc1cccc(-c2nc(N3CCOCC3)nc(N3CCOCC3)n2)c1 [Compound 1160, 3-6-[4-1,6-2-bis(morpholin-4-yl)-1,3,5-triazin-2-yl]phenol]"
18,< 5,"O=C1CCN(c2nc(-c3cccc4[nH]ncc34)nc(N3CCOCC3)n2)CC1 [Compound 1221, 1-8-[4-1-(1H-indazol-4-yl)-6-5-(morpholin-4-yl)-1,3,5-triazin-2-yl]piperidin-4-one]"
19,< 5,"CN(C)C(=O)CNc1nc(-c2cncc(O)c2)nc(N2CCOCC2)n1 [Compound 1150, 2-((4-(5-hydroxypyridin-3-yl)-6-morpholino-1,3,5-triazin-2-yl)amino)-N,N-dimethylacetamide]"
20,< 5,"CNC(=O)CNc1nc(-c2cccc(O)c2)nc(N2CCOCC2)n1 [Compound 1168, 2-((4-(3-hydroxyphenyl)-6-morpholino-1,3,5-triazin-2-yl)amino)-N-methylacetamide]"
